Columns and labels:
[1] = molecular target: T1, Full-length PRMT5 enzyme co-expressed with MEP50 (Homo sapiens (Human), UniProt O14744); test: PRMT5 Biochemical Assay; details: 200 nM histone H4 derived peptide substrate, 1 μM S-Adenosyl methionine, 4 hours at 37° C, Transcreener EPIGEN fluorescence polarisation
Experimental: Compounds of the invention may be tested for in vitro activity in the following assay: A histone H4 derived peptide is used as substrate (amino acid sequence: […]NH2). Full-length PRMT5 enzyme (NCBI Reference sequence NP-006100.2) was co-expressed with Hiss-MEP50 in insect cells and purified via Nickel immobilized metal affinity and gel filtration chromatography (“the enzyme”).
The 6 μL assay reactions are run in Greiner brand black 384-well low volume plates. All reactions contained assay buffer (phosphate buffered saline, 0.01% (v/v) Tween-20, 0.01% (w/v) albumin from chicken egg white, 1 mM dithiothreitol, 200 nM peptide substrate, 1 μM S-Adenosyl methionine, and 15 ng/reaction enzyme, with the enzyme being omitted from negative control reactions. Compounds were added in a volume of 100 nL from dilution series prepared in DMSO, positive and negative control reactions receiving the same volume DMSO without compound. The plates were sealed with adhesive seals and incubated for 4 hours at 37° C. Reaction progress was measured using the Transcreener™ EPIGEN methyltransferase assay (BellBrook Labs, Madison, Wis.) as recommended by the manufacturer. To each reaction 2 μL detection mix were added, containing coupling enzymes, fluorescence polarisation tracer, and AMP antibody. Plates were incubated for 90 min before being read on a PerkinElmer EnVision™ plate reader in fluorescence polarisation mode.

[2] = system: symmetrical dimethylation of arginine (Di-Methyl Histone H4 Arginine 3) in cell line TE11; test: Revised PRMT5 Biomarker Assay; details: Homo sapiens, TE-11; TE11 cells, 72 hours incubation, immunofluorescence, corrected for cell number (Hoechst 33342), plate reader based
Experimental: Compounds of the invention may be tested for potency to inhibit symmetrical dimethylation of arginine in the following assay:
The cell line TE11 was seeded at a density of 6,000 cells per well in 96 well optical quality tissue culture plates in DME medium and 10% foetal bovine serum, and allowed to adhere for 5 hours under standard culture conditions (37 degree Celsius, 5% CO2). Compound dilutions prepared in DMSO were added to the medium, with negative control wells reserved for treatment with DMSO only and positive controls receiving a potent PRMT5 inhibitor compound at 1 μM concentration. After incubation for 72 hours, the cells were fixed with 3.7% formaldehyde in PBS for 30 minutes at room temperature, washed with phosphate buffer saline and blocked with Odyssey blocking buffer (LI-COR, Lincoln, Nebr.). Rabbit anti-Di-Methyl Histone H4 Arginine 3 specific antibody (Epigentek) in Odyssey blocking buffer was added and incubated for 14 hours at 4 degree Celsius. After washing, anti-rabbit secondary antibody labelled with Alexa647 dye (LifeTechnologies) and Hoechst 33342 (1 μg/mL, SigmaAldrich) were added for 1 hour incubation. Plates were washed and read on a PerkinElmer Envision 2103 in fluorescence intensity scanning mode (24 scans across the well area). The methylation level information was corrected for the number of cells as expressed by the Hoechst 33342 stain, converted to percent inhibition relative to controls on the same plate and the data fitted against a four-parameter logistic model to determine the 50% inhibitory concentration (IC50 plate-reader based). Alternatively, the plates were imaged on a PerkinElmer Phenix high content imaging platform. Using a Columbus image analysis pipeline, individual nuclei were located by Hoechst 33342 stain and the methylation level was calculated from the Alexa647-related intensity in the same area. The resulting mean intensity per cell was directly converted to percent inhibition as outlined above (IC50, imager based)).

[3] = molecular target: T1, Full-length PRMT5 enzyme co-expressed with MEP50; test: Revised PRMT5 Biochemical Assay; details: 1 μM histone H4 derived peptide substrate, 1 μM S-Adenosyl methionine, 4 hours at 37 degree Celsius, Transcreener EPIGEN fluorescence polarisation
Method in brief: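 Full-length human PRMT5 co-expressed with His-MEP50 in insect cells (15 ng/reaction), 1 μM H4-derived peptide and 1 μM SAM in PBS/0.01% Tween-20/egg albumin/1 mM DTT, 4 h at 37 °C. SAH formation read by Transcreener EPIGEN fluorescence polarisation after 90 min detection. IC50 from four-parameter fit of plate-normalised % inhibition.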

T1 sequence (O14744 whole entry): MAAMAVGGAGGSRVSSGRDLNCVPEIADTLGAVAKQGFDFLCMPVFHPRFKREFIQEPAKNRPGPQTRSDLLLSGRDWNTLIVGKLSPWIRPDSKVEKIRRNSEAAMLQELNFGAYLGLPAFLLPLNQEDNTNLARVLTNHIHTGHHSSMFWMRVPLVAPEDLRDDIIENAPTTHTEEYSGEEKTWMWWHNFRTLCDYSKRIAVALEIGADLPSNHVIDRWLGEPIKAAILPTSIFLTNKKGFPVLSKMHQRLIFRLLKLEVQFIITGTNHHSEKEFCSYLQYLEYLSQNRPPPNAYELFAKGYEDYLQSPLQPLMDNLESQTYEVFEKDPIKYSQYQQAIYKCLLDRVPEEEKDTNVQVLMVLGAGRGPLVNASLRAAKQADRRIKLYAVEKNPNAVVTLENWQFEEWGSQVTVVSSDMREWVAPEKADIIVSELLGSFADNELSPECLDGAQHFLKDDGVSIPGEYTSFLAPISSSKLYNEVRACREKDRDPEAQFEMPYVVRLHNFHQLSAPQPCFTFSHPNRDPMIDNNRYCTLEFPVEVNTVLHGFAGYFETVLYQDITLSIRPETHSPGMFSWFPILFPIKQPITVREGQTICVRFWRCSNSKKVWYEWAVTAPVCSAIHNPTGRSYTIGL
T1 sequence (Q9BQA1 whole entry partner): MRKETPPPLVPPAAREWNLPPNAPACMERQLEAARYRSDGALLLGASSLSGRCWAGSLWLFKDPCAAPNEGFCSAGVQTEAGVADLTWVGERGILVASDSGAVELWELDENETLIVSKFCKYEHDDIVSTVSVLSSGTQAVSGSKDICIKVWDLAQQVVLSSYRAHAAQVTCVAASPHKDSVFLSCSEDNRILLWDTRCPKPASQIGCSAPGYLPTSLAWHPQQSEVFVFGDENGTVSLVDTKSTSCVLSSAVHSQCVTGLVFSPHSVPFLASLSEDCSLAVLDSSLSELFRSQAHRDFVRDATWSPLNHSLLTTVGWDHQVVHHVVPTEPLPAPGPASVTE

SMILES | IC50 [1] [nM] | IC50 [2] [µM] | IC50 [3] [nM]
O=C(NCC(O)CNC1Cc2ccc(Br)cc2C1)c1ccc(Cl)cc1 (stereo not shown) [Compound 28, N-(3-((5-Bromo-2,3-dihydro-1H-inden-2-yl)amino)-2-hydroxypropyl)-4-chlorobenzamide] | 69400 |  | 
O=C(NC[C@H](O)CNC1Cc2ccccc2C1)c1cnn(-c2ccc(F)cc2)c1 [Compound 9, (R)-N-(3-((2,3-Dihydro-1H-inden-2-yl)amino)-2-hydroxypropyl)-1-(4-fluorophenyl)-1H-pyrazole-4-carboxamide] | 3720 |  | 
Cc1nc(-c2ccc(C(F)(F)F)cc2)sc1C(=O)NC[C@H](O)CNC1Cc2ccccc2C1 [Compound 3, (R)—N-(3-((2,3-Dihydro-1H-inden-2-yl)amino)-2-hydroxypropyl)-4-methyl-2-(4-(trifluoromethyl)phenyl)thiazole-5-carboxamide] | 309 |  | 
CCOc1cc(C(=O)N2C3CCCC2COC3)ccc1C(=O)NC[C@@H](O)CNC1Cc2ccccc2C1 [Compound 135, 4-(3-Oxa-9-azabicyclo[3.3.1]nonane-9-carbonyl)-N—((S)-3-((2,3-dihydro-1H-inden-2-yl)amino)-2-hydroxypropyl)-2-ethoxybenzamide] |  | 0.0003 | 15
O=C(NCCC(O)CNC1Cc2ccccc2C1)c1ccc(Cl)cc1 (stereo not shown) [Compound 29, 4-Chloro-N-(4-((2,3-dihydro-1H-inden-2-yl)amino)-3-hydroxybutyl)benzamide] | 4430 |  | 
O=C(NCC(O)CNC1Cc2ccccc2C1)c1ccccc1-c1ccccc1 (stereo not shown) [Compound 26, N-(3-((2,3-Dihydro-1H-inden-2-yl)amino)-2-hydroxypropyl)-[1,1′-biphenyl]-2-carboxamide] | 3870 |  | 
O=C(NCC(O)CNC1Cc2ccccc2C1)c1cccc(-c2ccccc2)c1 (stereo not shown) [Compound 25, N-(3-((2,3-Dihydro-1H-inden-2-yl)amino)-2-hydroxypropyl)[1,1′-biphenyl]-3-carboxamide] | 2220 |  | 
O=C(NC[C@H](O)CNC1Cc2ccccc2C1)c1cnn(-c2ccccc2)c1 [Compound 4, (R)-N-(3-((2,3-Dihydro-1H-inden-2-yl)amino)-2-hydroxypropyl)-1-phenyl-1H-pyrazole-4-carboxamide] | 3790 |  | 
O=C(NCC(O)CNC1Cc2ccccc21)c1ccc(Cl)cc1 (stereo not shown) [Compound 34, N-(3-(Bicyclo[4.2.0]octa-1(6),2,4-trien-7-ylamino)-2-hydroxypropyl)-4-chlorobenzamide] | 41100 |  | 
O=C(NCC(O)CNC1CCc2ccc(F)cc2C1)c1ccc(Cl)cc1 (stereo not shown) [Compound 31, 4-Chloro-N-(3-((7-fluoro-1,2,3,4-tetrahydronaphthalen-2-yl)amino)-2-hydroxypropyl)benzamide] | 22600 |  | 
O=C(NCC(O)CNC1CCc2cc(F)ccc2C1)c1ccc(Cl)cc1 (stereo not shown) [Compound 32, 4-Chloro-N-(3-((6-fluoro-1,2,3,4-tetrahydronaphthalen-2-yl)amino)-2-hydroxypropyl)benzamide] | 18800 |  | 
CN(CC(O)CNC(=O)c1ccc(Cl)cc1)C1CCc2ccccc2C1 (stereo not shown) [Compound 33, 4-Chloro-N-(2-hydroxy-3-(methyl(1,2,3,4-tetrahydronaphthalen-2-yl)amino)propyl) benzamide] | 24900 |  | 
O=C(NCC(O)CNC1Cc2ccccc2C1)c1ccc(Cl)cc1 (stereo not shown) [Compound 1, 4-Chloro-N-(3-((2,3-dihydro-1H-inden-2-yl)amino)-2-hydroxypropyl)benzamide] | 792 |  | 
Cc1nn(C)cc1-c1cc(C(=O)NC[C@H](O)CNC2Cc3ccccc3C2)no1 [Compound 5, (R)-N-(3-((2,3-Dihydro-1H-inden-2-yl)amino)-2-hydroxypropyl)-5-(1,3-dimethyl-1H-pyrazol-4-yl)isoxazole-3-carboxamide] | 9780 |  | 

Next, values leading:

IC50 [1] [nM] | IC50 [2] [µM] | IC50 [3] [nM] | SMILES
1440 |  |  | O=C(NC[C@H](O)CNC1Cc2ccccc2C1)c1cnn(-c2cccc(Cl)c2)c1 [Compound 10, (R)-1-(3-Chlorophenyl)-N-(3-((2,3-dihydro-1H-inden-2-yl)amino)-2-hydroxypropyl)-1H-pyrazole-4-carboxamide]
629 |  |  | Cc1nnc(-c2ccc(C(=O)NC[C@@H](O)CNC3Cc4ccccc4C3)cc2)o1 [Compound 17, (S)-N-(3-((2,3-Dihydro-1H-inden-2-yl)amino)-2-hydroxypropyl)-4-(5-methyl-1,3,4-oxadiazol-2-yl)benzamide]
 | 0.007 | 98 | CC(=O)N1CCC(Nc2cc(C(=O)NC[C@@H](O)CNC3Cc4ccccc4C3)ccn2)CC1 [Compound 56, (S)-2-((1-Acetylpiperidin-4-yl)amino)-N-(3-((2,3-dihydro-1H-inden-2-yl)amino)-2-hydroxypropyl)isonicotinamide]
 | 0.024 | 66 | CCOc1cc(C(=O)N2CCS(=O)(=O)CC2)ccc1C(=O)NC[C@@H](O)CNC1Cc2ccccc2C1 [Compound 114, (S)-N-(3-((2,3-dihydro-1H-inden-2-yl)amino)-2-hydroxypropyl)-4-(1,1-dioxidothiomorpholine-4-carbonyl)-2-ethoxybenzamide]
120 |  |  | O=C(NCC(O)CNC1Cc2ccccc2C1)c1ccc(C(=O)N2CC3CCC(C2)O3)cc1 (stereo not shown) [Compound 39, 4-(8-Oxa-3-azabicyclo[3.2.1]octane-3-carbonyl)-N-(3-((2,3-dihydro-1H-inden-2-yl)amino)-2-hydroxypropyl)benzamide]
1550 |  |  | COc1ccc(-c2cc(C(=O)NC[C@H](O)CNC3Cc4ccccc4C3)no2)cc1 [Compound 6, (R)-N-(3-((2,3-Dihydro-1H-inden-2-yl)amino)-2-hydroxypropyl)-5-(4-methoxyphenyl)isoxazole-3-carboxamide]
 | 0.015 | 157 | CC[C@H]1COCCN1C(=O)c1ccc(C(=O)NC[C@@H](O)CNC2Cc3ccccc3C2)cc1 [Compound 70, N-((S)-3-((2,3-dihydro-1H-inden-2-yl)amino)-2-hydroxypropyl)-4-((S)-3-ethylmorpholine-4-carbonyl)benzamide]
 | 0.004 | 64 | CCOc1cc(C(=O)N2CCOCC2)ccc1C(=O)NC[C@@H](O)CNC1Cc2ccccc2C1 [Compound 75, (S)-N-(3-((2,3-dihydro-1H-inden-2-yl)amino)-2-hydroxypropyl)-2-ethoxy-4-(morpholine-4-carbonyl)benzamide]
 | 0.662 | 164 | CC(=O)N1CCC(Nc2cncc(C(=O)NCC(O)CNC3Cc4ccccc4C3)c2)CC1 (stereo not shown) [Compound 53, 5-((1-Acetylpiperidin-4-yl)amino)-N-(3-((2,3-dihydro-1H-inden-2-yl)amino)-2-hydroxypropyl)nicotinamide]
 | > 2 | 10400 | CN(C[C@@H](O)CNC1Cc2ccccc2C1)C(=O)c1ccc(C(=O)N2CCOCC2)cc1 [Compound 111, (S)—N-(3-((2,3-Dihydro-1H-inden-2-yl)amino)-2-hydroxypropyl)-N-methyl-4-(morpholine-4-carbonyl)benzamide]
 | 0.013 | 48 | CCOc1cc(C(=O)N2CCOC[C@@H]2CC)ccc1C(=O)NC[C@@H](O)CNC1Cc2ccccc2C1 [Compound 124, N-((S)-3-((2,3-dihydro-1H-inden-2-yl)amino)-2-hydroxypropyl)-2-ethoxy-4-((S)-3-ethylmorpholine-4-carbonyl)benzamide]
157 |  |  | CC1(C)CN(C(=O)c2ccc(C(=O)NCC(O)CNC3Cc4ccccc4C3)cc2)CCO1 (stereo not shown) [Compound 41, N-(3-((2,3-Dihydro-1H-inden-2-yl)amino)-2-hydroxypropyl)-4-(2,2-dimethylmorpholine-4-carbonyl)benzamide]
